Source: patent US12281114B2, “NK3 modulators and uses thereof” (Kallyope, Inc., priority 2023, dated 2025)

target: T1, human NK3 (Homo sapiens, UniProt P29371); assay: FLIPR calcium assay in antagonist mode (NKB EC70 challenge); assay type: cell-based; conditions: stable cell line expressing human recombinant NK3; antagonist mode vs EC70 of NKB agonist
T1 sequence (P29371 1-465): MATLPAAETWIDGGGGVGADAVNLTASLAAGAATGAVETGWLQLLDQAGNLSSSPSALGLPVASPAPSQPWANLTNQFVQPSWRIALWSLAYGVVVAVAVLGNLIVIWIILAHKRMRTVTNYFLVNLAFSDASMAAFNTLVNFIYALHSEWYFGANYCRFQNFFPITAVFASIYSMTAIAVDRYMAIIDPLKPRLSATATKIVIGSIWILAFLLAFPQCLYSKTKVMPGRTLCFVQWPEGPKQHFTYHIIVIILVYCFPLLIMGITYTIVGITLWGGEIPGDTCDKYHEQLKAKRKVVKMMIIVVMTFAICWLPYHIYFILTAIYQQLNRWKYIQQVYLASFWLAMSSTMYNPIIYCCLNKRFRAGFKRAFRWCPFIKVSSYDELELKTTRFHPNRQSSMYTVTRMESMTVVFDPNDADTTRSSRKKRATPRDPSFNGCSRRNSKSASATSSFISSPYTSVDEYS
Experimental: Stable Cell Lines: A human recombinant NK3 Tachykinin Receptor stable cell line was purchased from GenScript (Genscript, Cat. #M00201; GenBank Accession Number NM 001059). The cell line was cultured according to manufacturer instructions, using 100 μg/mL Hygromycin B (Invitrogen, Cat. #D2650) for selective pressure. Cells were then collected using 0.05% Trypsin-EDTA (GIBCO, Cat. #25300) and frozen in a freezing media containing 90% FBS (Gibco, Cat. #10099-141) and 10% DMSO (Sigma, Cat. #D2650) at a density of 30×10^6 cells/mL. This bank of assay-ready frozen cells was later used in FLIPR assays to evaluate the potency and efficacy of NK3 antagonist test compounds.
FLIPR Calcium Assay: The FLIPR assay, used to measure changes in intracellular calcium levels, was performed in a 384-well plate format using the FLIPR Calcium 6 assay kit (Molecular Devices, Cat. #R8190). Assay-ready frozen cells expressing human NK3 (Genscript, Cat. #M00201) were thawed, washed, trypsinized, counted using a ViCell, and plated in cell growth media without Hygromycin at a density of […] (40 μL/well).
Calculation of NKB EC70: An EC70 concentration of NKB needed to be determined for competition against test antagonists prior to the compound screen. NKB agonist (Phoenix Pharmaceuticals, Cat. #046-26) was diluted in DMSO at 1800 nM (6-fold the final concentration) and serially diluted to generate a 13-point dose response curve (3-fold serial dilution) using an ECHO. 20 μL of 1× stimulation buffer was added using the BRAVO. 10 μL of DMSO was added while on the FLIPR (described as the first addition), then the RFU signal was measured for 10 minutes. The NKB titration was added to the plate, then the RFU signal was measured for 10 minutes (described as the second addition) on the FLIPR. The EC70 concentration was determined by using a four-parameter fit on GraphPad Prism prior to performing the compound screen.
FLIPR Screen in Antagonist Mode: Test compounds were prepared at 60 μM (6-fold the final concentration) and spotted in 370 nL using the Janus and ECHO. 20 μL of assay buffer was added using the BRAVO. Calcium-sensitive dye was reconstituted in loading buffer (Molecular Devices, Cat. #R8190). Media was removed from the cell plate using a Bluecat Cell Washer, and 40 μL of dye was added to the cell plate using the Apricot. The plate was incubated for 2 hours at 37° C., 5% CO2, then transferred to the FLIPR instrument. 10 μL of compound was added on the FLIPR (described as the first addition), then the RFU signal was measured for 10 minutes. EC70 of NKB agonist was added to the entire plate (described as the second addition), and the RFU signal was measured for 10 minutes on the FLIPR. RFU (relative fluorescence units) signals for first baseline, first peak, second baseline, and second peak were measured using the FLIPR. RFU signal (second peak minus second baseline) for positive (Max, at 10 μM antagonist) and negative (Min, at 0 μM antagonist) controls were used to normalize data and generate values for % Activity. IC50 and efficacy values were determined using a standard curve fitting equation on Dotmatics.

Structure (SMILES)	IC50
Cc1nn(C)cc1-c1ccccc1-c1nc2cc(C(=O)NCC3(O)COC3)ccn2c1Cl [Compound 650]	5.83 nM
Cc1nn(C)cc1-c1ccccc1-c1nc2cc(C(=O)NCCC3(O)COC3)ccn2c1Cl [Compound 651]	9.28 nM
Cc1nn(C)cc1-c1ccccc1-c1nc2cc(C(=O)NC3CCNCC3)ccn2c1Cl [Compound 704]	6.76 nM
Cc1nn(C)cc1-c1cccc(F)c1-c1nc2cc(C(=O)NC3CCNCC3)ccn2c1Cl [Compound 705]	4.97 nM
Cc1nn(C)cc1-c1ccccc1-c1nc2cc(C(=O)NC(C)c3n[nH]c(=O)[nH]3)ccn2c1Cl (stereo not shown) [Compound 747]	2.08 nM
Cc1nn(C)cc1-c1ccccc1-c1nc2cc(C(=O)NCCc3n[nH]c(=O)[nH]3)ccn2c1Cl [Compound 748]	5.58 nM
Cc1nc(N)ccc1CNC(=O)c1ccn2c(Cl)c(-c3ccccc3-c3cn(C)nc3C)nc2c1 [Compound 759]	2.78 nM
Cc1nn(C)cc1-c1ccccc1-c1nc2cc(C(=O)NCc3cnc(N)nc3)ccn2c1Cl [Compound 761]	1.92 nM
Cc1nn(C)cc1-c1ccccc1-c1nc2cc(C(=O)N[C@H]3CO[C@H]4[C@@H]3OC[C@@H]4O)ccn2c1Cl [Compound 767]	4.26 nM
Cc1nn(C)cc1-c1ccccc1-c1nc2cc(C(=O)N[C@H]3CO[C@H]4[C@@H]3OC[C@H]4O)ccn2c1Cl [Compound 768]	1.96 nM
Cc1nn(C)cc1-c1cccc(F)c1-c1nc2cc(C(=O)N[C@H]3CO[C@H]4[C@@H]3OC[C@@H]4O)ccn2c1Cl [Compound 773]	2.63 nM
Cc1nn(C)cc1-c1ccccc1-c1nc2cc(C(=O)N[C@H]3CO[C@H]4[C@@H]3OC[C@@H]4O)ccn2c1C#N [Compound 774]	5.21 nM
Cc1nn(C)cc1-c1cccc(F)c1-c1nc2cc(C(=O)N[C@H]3CO[C@H]4[C@@H]3OC[C@@H]4O)ccn2c1C#N [Compound 775]	4.64 nM
Cc1nn(C)cc1-c1ccccc1-c1nc2cc(C(=O)N[C@H]3CO[C@H]4[C@@H]3OC[C@H]4O)ccn2c1C [Compound 779]	5.82 nM
Cc1nn(C)cc1-c1cccc(F)c1-c1nc2cc(C(=O)N[C@H]3CO[C@H]4[C@@H]3OC[C@H]4O)ccn2c1Cl [Compound 780]	3.34 nM
Cc1nn(C)cc1-c1ccccc1-c1nc2cc(C(=O)N[C@H]3CO[C@H]4[C@@H]3OC[C@H]4O)ccn2c1C#N [Compound 781]	12.7 nM
Cc1nn(C)cc1-c1cccc(F)c1-c1nc2cc(C(=O)N[C@H]3CO[C@H]4[C@@H]3OC[C@H]4O)ccn2c1C#N [Compound 782]	4.8 nM
Cc1c(-c2ccccc2-c2cn(C)nc2C(F)(F)F)nc2cc(C(=O)N[C@@H]3CO[C@H]4[C@@H]3OC[C@H]4O)ccn12 [Compound 783]	3.21 nM
Cc1c(-c2ccccc2-c2cn(C)nc2C(F)(F)F)nc2cc(C(=O)N[C@H]3CO[C@H]4[C@@H]3OC[C@H]4O)ccn12 [Compound 784]	6.21 nM
CC12CC(NC(=O)c3ccn4c(Cl)c(-c5c(F)cc(F)cc5-c5c[nH]nc5Cl)nc4c3)(CO1)C2 [Compound 788, 3-chloro-2-(2-(3-chloro-1H-pyrazol-4-yl)-4,6-difluorophenyl)-N-(1-methyl-2-oxabicyclo[2.1.1]hexan-4-yl)imidazo[1,2-a]pyridine-7-carboxamide]	1.03 nM
N#CC12CC(NC(=O)c3ccn4c(Cl)c(-c5c(F)cc(F)cc5-c5c[nH]nc5F)nc4c3)(C1)C2 [Compound 789, 3-chloro-N-(3-cyanobicyclo[1.1.1]pentan-1-yl)-2-(2,4-difluoro-6-(3-fluoro-1H-pyrazol-4-yl)phenyl)imidazo[1,2-a]pyridine-7-carboxamide]	1.99 nM
CC12CC(NC(=O)c3ccn4c(Cl)c(-c5c(F)cc(F)cc5-c5c[nH]nc5F)nc4c3)(CO1)C2 [Compound 790, 3-chloro-2-(2,4-difluoro-6-(3-fluoro-1H-pyrazol-4-yl)phenyl)-N-(1-methyl-2-oxabicyclo[2.1.1]hexan-4-yl)imidazo[1,2-a]pyridine-7-carboxamide]	3.31 nM

Structure (SMILES)	IC50
Cn1cc(-c2cccc(F)c2-c2nc3cc(C(=O)N[C@H]4C[C@@](C)(O)C4)ccn3c2Cl)c(F)n1 [Compound 791, 3-chloro-2-(2-fluoro-6-(3-fluoro-1-methyl-1H-pyrazol-4-yl)phenyl)-N-((1s,3s)-3-hydroxy-3-methylcyclobutyl)imidazo[1,2-a]pyridine-7-carboxamide]	0.72 nM
Cc1nn(C)cc1-c1ccccc1-c1nc2cc(C(=O)N3CCC4(CC(CO)C4)C3)ccn2c1Cl (stereo not shown) [Compound 792]	2.09 nM
Cc1nn(C)cc1-c1ccccc1-c1nc2cc(C(=O)N[C@H]3C[C@H](C(C)(C)O)C3)ccn2c1Cl [Compound 793]	1.19 nM
Cc1nn(C)cc1-c1ccccc1-c1nc2cc(C(=O)N[C@@H]3CO[C@H]4[C@@H]3OC[C@H]4N)ccn2c1Cl [Compound 794]	8.45 nM
Cn1cc(-c2ccccc2-c2nc3cc(C(=O)N4C[C@@H]5C[C@H]4C(=O)N5)ccn3c2Cl)c(C#N)n1 [Compound 795]	12.5 nM
Cc1nn(C)cc1-c1cccc(F)c1-c1nc2cc(C(=O)N3CCN(C(CO)CO)CC3)ccn2c1Cl [Compound 796]	4.11 nM
Cc1nn(C)cc1-c1ccccc1-c1nc2cc(C(=O)NC[C@@H](C)N3CCNCC3)ccn2c1Cl [Compound 797]	4.63 nM
Cc1nn(C)cc1-c1ccccc1-c1nc2cc(C(=O)N3C[C@@H]4NCCN[C@@H]4C3)ccn2c1Cl [Compound 798]	22.4 nM
Cc1nn(C)cc1-c1cccc(F)c1-c1nc2cc(C(=O)N3CCNCC3)ccn2c1Cl [Compound 799]	4.7 nM
Cc1nn(C)cc1-c1ccc(F)cc1-c1nc2cc(C(=O)N3C[C@@H]4C[C@H]3C(=O)N4)ccn2c1Cl [Compound 800]	8.07 nM
Cc1c(-c2ccccc2-c2nc3cc(C(=O)N[C@@H]4CO[C@H]5[C@@H]4OC[C@H]5O)ccn3c2Cl)cnn1CC1CC1 [Compound 801]	22 nM
Cc1nn(C)cc1-c1cc(F)cc(F)c1-c1nc2cc(C(=O)N3CC4(O)CC3C4)ccn2c1Cl [Compound 814]	3.33 nM
O=C1N[C@H]2C[C@@H]1N(C(=O)c1ccn3c(Cl)c(-c4ccccc4-c4cnn(C(F)(F)F)c4C(F)(F)F)nc3c1)C2 [Compound 816]	8.46 nM
Cc1nn(C)cc1-c1c(F)c(F)cc(F)c1-c1nc2cc(C(=O)N3C[C@@H]4C[C@H]3C(=O)N4)ccn2c1Cl [Compound 817]	1.92 nM
C[C@]1(O)C[C@H](NC(=O)c2ccn3c(Cl)c(-c4ccccc4-c4cnn(C(F)F)c4Cl)nc3c2)C1 [Compound 818]	0.99 nM
C[C@]1(O)C[C@H](NC(=O)c2ccn3c(Cl)c(-c4ccccc4-c4cn(C(F)F)nc4Cl)nc3c2)C1 [Compound 819]	6.12 nM
C[C@]1(O)C[C@H](NC(=O)c2ccn3c(Cl)c(-c4ccccc4-c4cnn(C(F)(F)F)c4Cl)nc3c2)C1 [Compound 820]	0.77 nM
C[C@]1(O)C[C@H](NC(=O)c2ccn3c(Cl)c(-c4ccccc4-c4cn(C(F)(F)F)nc4Cl)nc3c2)C1 [Compound 821]	2.49 nM
Cc1nn(C)cc1-c1cc(F)ccc1-c1nc2cc(C(=O)NC34CNC(C3)C4)ccn2c1Cl [Compound 822]	9.61 nM
Cc1nn(C)cc1-c1cncc(F)c1-c1nc2cc(C(=O)N[C@H]3C[C@@](C)(O)C3)ccn2c1Cl [Compound 823]	3.25 nM
Cc1nn(C)cc1-c1c(F)cncc1-c1nc2cc(C(=O)N[C@H]3C[C@](C)(O)C3)ccn2c1Cl [Compound 824]	5.89 nM
